Like-named read-outs stand apart in the source and are kept apart here.
Columns and labels:
[1] = test system: subcutaneously pentetrazol-injected model (scPTZ); experiment: Subcutaneously pentetrazol-injected model (scPTZ) test; type: in vivo, mice; conditions: for responders at 50 mg/kg / responders at 100 mg/kg: Mus musculus, po, 1 h
Method in brief: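 Pentetrazol (85 mg/kg, s.c.) was injected one hour after oral test compound at 50 or 100 mg/kg in groups of three male Slc:ddY mice weighing 20-30 g; vehicle controls got 0.5% tragacanth or 0.5% methylcellulose.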

[2] = test system: maximum electroshock seizure (MES) model; experiment: Maximum electroshock seizure (MES) model test; type: in vivo, mice; conditions: for responders at 50 mg/kg / responders at 100 mg/kg: Mus musculus, po, 1 h; for responders at 50 mg/kg / responders at 100 mg/kg / MES (positive number/tested number): inhibition of hind limb extension
Method in brief: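 Tonic hind-limb extension was elicited by corneal electroshock (60 Hz, 25 mA, 0.2 s) 1 h after oral dosing. Test compounds were given at 50 or 100 mg/kg to groups of 3 male Slc: ddY mice (20-30 g), vehicle controls receiving 0.5% tragacanth or 0.5% methylcellulose solution.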

[3] = 50 mg/kg oral, Slc: ddY male mice, 3 per group, pentetrazol 85 mg/kg s.c. after 1 hour, observed 30 minutes for clonic convulsion, read-out: scPTZ (positive number/tested number) (converted)
[4] = 100 mg/kg oral, Slc: ddY male mice, 3 per group, pentetrazol 85 mg/kg s.c. after 1 hour, observed 30 minutes for clonic convulsion, read-out: scPTZ (positive number/tested number) (converted)
[5] = 50 mg/kg oral, Slc: ddY male mice, 3 per group, electrical stimulation 1 hour after administration, read-out: MES (positive number/tested number) (converted)
[6] = 100 mg/kg oral, Slc: ddY male mice, 3 per group, electrical stimulation 1 hour after administration, read-out: MES (positive number/tested number) (converted)

SMILES: CNC(=O)C(F)c1ccccc1-c1ccc(F)cc1 (stereo not drawn) [Example 166, 2-fluoro-2-(4′-fluorobiphenyl-2-yl)-N-methylacetamide]
- responders at 50 mg/kg [1, 3]: 33.3%
- responders at 100 mg/kg [1, 4]: 66.7%
- responders at 50 mg/kg [2, 5]: 66.7%
- responders at 100 mg/kg [2, 6]: 100%

SMILES: NC(=O)C(F)c1ccccc1-c1cccc(Cl)c1 (stereo not drawn) [Example 167, 2-(3′-chlorobiphenyl-2-yl)-2-fluoroacetamide]
- responders at 50 mg/kg ([1]; read-out: scPTZ (positive number/tested number), 50 mg/kg oral, Slc: ddY male mice, 3 per group, pentetrazol 85 mg/kg s.c. after 1 hour, observed 30 minutes for clonic convulsion): 66.7%
- responders at 100 mg/kg ([1]; read-out: scPTZ (positive number/tested number), 100 mg/kg oral, Slc: ddY male mice, 3 per group, pentetrazol 85 mg/kg s.c. after 1 hour, observed 30 minutes for clonic convulsion): 100%
- responders at 50 mg/kg ([2]; read-out: MES (positive number/tested number), 50 mg/kg oral, Slc: ddY male mice, 3 per group, electrical stimulation 1 hour after administration): 33.3%
- responders at 100 mg/kg ([2]; read-out: MES (positive number/tested number), 100 mg/kg oral, Slc: ddY male mice, 3 per group, electrical stimulation 1 hour after administration): 100%

SMILES: CNC(=O)C(F)(F)c1ccccc1-c1ccccc1 [Example 168]
- responders at 100 mg/kg [1, 4]: 33.3%
- responders at 50 mg/kg [2, 5]: 33.3%
- responders at 100 mg/kg [2, 6]: 100%

SMILES: NC(=O)C(F)(F)c1ccccc1-c1ccccc1F [Example 169]
- responders at 100 mg/kg [1, 4]: 33.3%
- responders at 100 mg/kg [2, 6]: 100%

SMILES: NC(=O)C(F)(F)c1ccccc1-c1cccc(F)c1 [Example 170, 2,2-difluoro-2-(3′-fluorobiphenyl-2-yl)acetamide]
- responders at 50 mg/kg [1, 3]: 33.3%
- responders at 100 mg/kg [1, 4]: 66.7%
- responders at 50 mg/kg [2, 5]: 0%
- responders at 100 mg/kg [2, 6]: 100%

SMILES: NC(=O)C(F)(F)c1ccccc1-c1cccc(Cl)c1 [Example 171, 2-(3′-chlorobiphenyl-2-yl)-2,2-difluoroacetamide]
- responders at 50 mg/kg [1, 3]: 33.3%
- responders at 100 mg/kg [1, 4]: 100%
- responders at 50 mg/kg [2, 5]: 100%
- responders at 100 mg/kg [2, 6]: 100%

SMILES: O=C(Cc1ccccc1-c1ccccc1F)NC1CC1 [Example 172]
- responders at 100 mg/kg [1, 4]: 0%
- responders at 100 mg/kg [2, 6]: 100%

SMILES: O=C(Cc1ccccc1-c1ccccc1F)NCC1CC1 [Example 173]
- responders at 100 mg/kg [1, 4]: 0%
- responders at 100 mg/kg [2, 6]: 33.3%

SMILES: NC(=O)C(F)(F)c1ccccc1-c1ccccc1 [Example 174, 2-(biphenyl-2-yl)-2,2-difluoroacetamide]
- responders at 50 mg/kg [1, 3]: 33.3%
- responders at 100 mg/kg [1, 4]: 66.7%
- responders at 50 mg/kg [2, 5]: 100%
- responders at 100 mg/kg [2, 6]: 100%

SMILES: CC(C(N)=O)c1ccccc1-c1cccc(F)c1 (stereo not drawn) [Example 175, 2-(3′-fluorobiphenyl-2-yl)propanamide]
- responders at 50 mg/kg [1, 3]: 0%
- responders at 100 mg/kg [1, 4]: 100%
- responders at 50 mg/kg [2, 5]: 0%
- responders at 100 mg/kg [2, 6]: 66.7%

SMILES: CNC(=O)C(C)c1ccccc1-c1cccc(F)c1 (stereo not drawn) [Example 176]
- responders at 100 mg/kg [1, 4]: 0%
- responders at 100 mg/kg [2, 6]: 33.3%

SMILES: CC(C(N)=O)c1ccccc1-c1cccc(Cl)c1 (stereo not drawn) [Example 177]
- responders at 100 mg/kg [1, 4]: 33.3%
- responders at 100 mg/kg [2, 6]: 0%

SMILES: NC(=O)C(O)c1ccccc1-c1ccc(F)cc1 (stereo not drawn) [Example 179]
- responders at 100 mg/kg [1, 4]: 33.3%
- responders at 50 mg/kg [2, 5]: 33.3%
- responders at 100 mg/kg [2, 6]: 100%

SMILES: NC(=O)C(O)c1ccccc1-c1cccc(Cl)c1 (stereo not drawn) [Example 180]
- responders at 100 mg/kg [1, 4]: 33.3%
- responders at 50 mg/kg [2, 5]: 33.3%
- responders at 100 mg/kg [2, 6]: 100%

SMILES: NC(=O)C(O)c1ccc(F)cc1-c1ccccc1 (stereo not drawn) [Example 181, 2-(5-fluorobiphenyl-2-yl)-2-hydroxyacetamide]
- responders at 50 mg/kg [1, 3]: 0%
- responders at 100 mg/kg [1, 4]: 66.7%
- responders at 50 mg/kg [2, 5]: 33.3%
- responders at 100 mg/kg [2, 6]: 100%

SMILES: NC(=O)C(O)c1ccc(F)cc1-c1cccc(F)c1 (stereo not drawn) [Example 182, 2-(3′,5-difluorobiphenyl-2-yl)-2-hydroxyacetamide]
- responders at 50 mg/kg [1, 3]: 0%
- responders at 100 mg/kg [1, 4]: 100%
- responders at 50 mg/kg [2, 5]: 33.3%
- responders at 100 mg/kg [2, 6]: 100%

SMILES: NC(=O)C(O)c1ccc(F)cc1-c1cc(Cl)cc(Cl)c1 (stereo not drawn) [Example 184, 2-(3′,5′-dichloro-5-fluorobiphenyl-2-yl)-2-hydroxyacetamide]
- responders at 50 mg/kg [1, 3]: 33.3%
- responders at 100 mg/kg [1, 4]: 66.7%
- responders at 50 mg/kg [2, 5]: 66.7%
- responders at 100 mg/kg [2, 6]: 100%

SMILES: NC(=O)C(O)c1cc(F)ccc1-c1ccccc1 (stereo not drawn) [Example 186, 2-(4-fluorobiphenyl-2-yl)-2-hydroxyacetamide]
- responders at 50 mg/kg [1, 3]: 66.7%
- responders at 100 mg/kg [1, 4]: 66.7%
- anticonvulsant action in subcutaneously pentetrazol-injected model (scPTZ) test ([1]; mice, oral 50 or 100 mg/kg, pentetrazol 85 mg/kg s.c. after 1 hour): anticonvulsant action was observed
- responders at 50 mg/kg [2, 5]: 100%
- responders at 100 mg/kg [2, 6]: 100%
- anticonvulsant action in maximum electroshock seizure (MES) model test ([2]; mice, oral 50 or 100 mg/kg, 1 hour after administration): anticonvulsant action was observed

SMILES: NC(=O)C(O)c1cc(F)ccc1-c1ccccc1F (stereo not drawn) [Example 187]
- responders at 100 mg/kg [1, 4]: 0%
- responders at 100 mg/kg [2, 6]: 100%

SMILES: NC(=O)C(O)c1cc(F)ccc1-c1cccc(F)c1 (stereo not drawn) [Example 188, 2-(3′,4-difluorobiphenyl-2-yl)-2-hydroxyacetamide]
- responders at 50 mg/kg [1, 3]: 0%
- responders at 100 mg/kg [1, 4]: 66.7%
- responders at 50 mg/kg [2, 5]: 33.3%
- responders at 100 mg/kg [2, 6]: 100%

SMILES: NC(=O)C(O)c1ccccc1-c1cc(F)cc(Cl)c1 (stereo not drawn) [Example 191, 2-(3′-chloro-5′-fluorobiphenyl-2-yl)-2-hydroxyacetamide]
- responders at 50 mg/kg [1, 3]: 33.3%
- responders at 100 mg/kg [1, 4]: 100%
- responders at 50 mg/kg [2, 5]: 100%
- responders at 100 mg/kg [2, 6]: 100%

SMILES: NC(=O)C(O)c1ccccc1-c1cc(F)ccc1F (stereo not drawn) [Example 192]
- responders at 100 mg/kg [1, 4]: 33.3%
- responders at 100 mg/kg [2, 6]: 100%

SMILES: NC(=O)C(O)c1ccccc1-c1cc(F)c(F)c(F)c1 (stereo not drawn) [Example 193, 2-hydroxy-2-(3′,4′,5′-trifluorobiphenyl-2-yl)acetamide]
- responders at 50 mg/kg [1, 3]: 100%
- responders at 100 mg/kg [1, 4]: 66.7%
- responders at 50 mg/kg [2, 5]: 100%
- responders at 100 mg/kg [2, 6]: 100%

SMILES: NC(=O)C(O)c1ccccc1-c1cc(Cl)ccc1F (stereo not drawn) [Example 194, 2-(5′-chloro-2′-fluorobiphenyl-2-yl)-2-hydroxyacetamide]
- responders at 50 mg/kg [1, 3]: 33.3%
- responders at 100 mg/kg [1, 4]: 66.7%
- responders at 50 mg/kg [2, 5]: 33.3%
- responders at 100 mg/kg [2, 6]: 100%

SMILES: NC(=O)C(O)c1ccccc1-c1ccc(Cl)c(C(F)(F)F)c1 (stereo not drawn) [Example 195]
- responders at 100 mg/kg [1, 4]: 33.3%
- responders at 100 mg/kg [2, 6]: 100%

SMILES: COC(C(N)=O)c1ccccc1-c1cccc(F)c1 (stereo not drawn) [Example 199]
- responders at 100 mg/kg [1, 4]: 33.3%
- responders at 50 mg/kg [2, 5]: 33.3%
- responders at 100 mg/kg [2, 6]: 100%

SMILES: COC(C(N)=O)c1ccccc1-c1ccccc1F (stereo not drawn) [Example 200, 2-(2′-fluorobiphenyl-2-yl)-2-methoxyacetamide]
- responders at 50 mg/kg [1, 3]: 33.3%
- responders at 100 mg/kg [1, 4]: 66.7%
- responders at 50 mg/kg [2, 5]: 0%
- responders at 100 mg/kg [2, 6]: 100%

SMILES: CNC(=O)C(OC)c1ccccc1-c1ccccc1F (stereo not drawn) [Example 201, 2-(2′-fluorobiphenyl-2-yl)-2-methoxy-N-methylacetamide]
- responders at 50 mg/kg [1, 3]: 33.3%
- responders at 100 mg/kg [1, 4]: 66.7%
- responders at 50 mg/kg [2, 5]: 33.3%
- responders at 100 mg/kg [2, 6]: 66.7%

SMILES: COC(C(=O)N(C)C)c1ccccc1-c1ccccc1F (stereo not drawn) [Example 202, 2-(2′-fluorobiphenyl-2-yl)-2-methoxy-N,N-dimethylacetamide]
- responders at 50 mg/kg [1, 3]: 0%
- responders at 100 mg/kg [1, 4]: 100%
- responders at 50 mg/kg [2, 5]: 33.3%
- responders at 100 mg/kg [2, 6]: 66.7%

SMILES: COC(C(N)=O)c1ccccc1-c1ccc(F)cc1 (stereo not drawn) [Example 203, 2-(4′-fluorobiphenyl-2-yl)-2-methoxyacetamide]
- responders at 50 mg/kg [1, 3]: 66.7%
- responders at 100 mg/kg [1, 4]: 100%
- responders at 50 mg/kg [2, 5]: 33.3%
- responders at 100 mg/kg [2, 6]: 66.7%

SMILES: CNC(=O)C(OC)c1ccccc1-c1ccc(F)cc1 (stereo not drawn) [Example 204]
- responders at 100 mg/kg [1, 4]: 0%
- responders at 50 mg/kg [2, 5]: 0%
- responders at 100 mg/kg [2, 6]: 100%

SMILES: COC(C(=O)N(C)C)c1ccccc1-c1ccc(F)cc1 (stereo not drawn) [Example 205, 2-(4′-fluorobiphenyl-2-yl)-2-methoxy-N,N-dimethylacetamide]
- responders at 50 mg/kg [1, 3]: 33.3%
- responders at 100 mg/kg [1, 4]: 66.7%
- responders at 50 mg/kg [2, 5]: 0%
- responders at 100 mg/kg [2, 6]: 100%

SMILES: COC(C(N)=O)c1ccccc1-c1cccc(Cl)c1 (stereo not drawn) [Example 206, 2-(3′-chlorobiphenyl-2-yl)-2-methoxyacetamide]
- responders at 50 mg/kg [1, 3]: 0%
- responders at 100 mg/kg [1, 4]: 66.7%
- responders at 50 mg/kg [2, 5]: 33.3%
- responders at 100 mg/kg [2, 6]: 66.7%

SMILES: NC(=O)[C@@H](O)c1ccccc1-c1cc(Cl)cc(Cl)c1 [Example 216, 2-(3′,5′-dichlorobiphenyl-2-yl)-2S-hydroxyacetamide]
- scPTZ (positive number/tested number) ([1]; 50 mg/kg oral, Slc: ddY male mice, 3 per group, pentetrazol 85 mg/kg s.c. after 1 hour, observed 30 minutes for clonic convulsion): 1/3
- scPTZ (positive number/tested number) ([1]; 100 mg/kg oral, Slc: ddY male mice, 3 per group, pentetrazol 85 mg/kg s.c. after 1 hour, observed 30 minutes for clonic convulsion): 1/3
- MES (positive number/tested number) ([2]; 50 mg/kg oral, Slc: ddY male mice, 3 per group, electrical stimulation 1 hour after administration): 1/3
- MES (positive number/tested number) ([2]; 100 mg/kg oral, Slc: ddY male mice, 3 per group, electrical stimulation 1 hour after administration): 2/3
